# “Also recorded” adds a separate entry of the source.
# Legend:
# NCI-H716 cells = experiment: active GLP-1 secretion in NCI-H716 cells; assay type: cell-based, human; details: 10 μmol/l, 30 min
# Procedure: (§1) Endocrine differentiation was induced by seeding NCI-H716 cells in plates coated with Matrigel (Becton Dickinson). Cells were washed with RPMI-1640 medium without FBS and incubated in the same medium containing indicated compounds at 10 μmol/l. The condition medium was collected after 30 min. GLP-1 secretion in MIN6 or primary enterocytes was conducted similarly. To isolate primary enterocytes, ileum or colon was cut into 2 cm length, rinsed by PBS (pH7.2∼7.4) before dispersed in 10 mmol/l EDTA/PBS (pH7.4) for 15 min at room temperature, followed by pipetting up and down. Enterocytes were collected by filtration through a 70 μm cell strainer. To study the effect of WB403 on GLP-1 secretion in vivo, mice in group of three were fasted overnight and orally received 0, 50, 100 mg/kg of WB403 dispersed in 0.5% CMC with a DPP-4 inhibitor (5 mg/kg). There were 5 animals in each group. 2 g/kg glucose was administrated 30 min later and blood was collected 10 min after glucose challenge.
# (§2) The GLP-1 (active) ELISA kit was purchased from Millipore, and insulin ELISA kit was from Mercodia. For quantitative determination of cAMP, a competitive enzyme immunoassay kit from R&D system was used. All immunoassays were performed according to manufacturers’ instructions.
# MIN6 cells = experiment: active GLP-1 secretion in MIN6 cells; assay type: cell-based, mouse; details: Fig 1H
# Procedure: as §1, §2
# HFD/STZ mice = experiment: pancreas histology (H&E) of treated HFD/STZ mice; assay type: in vivo; details: after 8-week treatment
# Procedure: Analysis of islet cell mass was performed using conventional methods. In brief, mice were sacrificed by cervical dislocation. The body part of the pancreas was rapidly excised, fixed in 10% neutral buffered formalin solution for 24 h and embedded in paraffin, then sectioned at 5 μm ready for hematoxylin and eosin (H&E) staining and immunohistochemistry staining (IHC). The latter was carried out using rabbit anti-insulin polyclonal antibody (Cat. no. 4590, 1:600) and rabbit anti-glucagon monoclonal antibody (Cat. no. 8233s, 1:200) from Cell Signaling Technology.
# Fig 5 WB403 preserved the mass of pancreatic β-cells and normal distribution of α and β-cells. (A) H&E staining of pancreas from db/db mice, and statistical result. Islets were sized by the Image J analysis software on alternated pancreatic sections spaced each by 100 μm. (B) Immunohistochemical analysis of pancreatic sections by anti-insulin antibody or anti-glucagon antibody. (C) H&E staining of pancreas from HFD/STZ mice, and statistical result. Results are representative islets from each group. 1–5 in the column graph on the right represents normal mice, diabetic mice treated with vehicle, WB403 50 mg/kg, WB403 100 mg/kg, sitagliptin 100 mg/kg respectively (n = 5). *p<0.05, **p<0.01, ***p<0.001 vs. diabetes-vehicle group.
# hGPR40 = molecular target: T1, hGPR40 (Homo sapiens, UniProt O14842); experiment: GPR40-dependent calcium mobilization in 293-GPR40 stable cells; assay type: cell-based; details: 5, 10, 50 μmol/l
# T1 construct: expressed in transfected cells
# T1 sequence (O14842 whole entry): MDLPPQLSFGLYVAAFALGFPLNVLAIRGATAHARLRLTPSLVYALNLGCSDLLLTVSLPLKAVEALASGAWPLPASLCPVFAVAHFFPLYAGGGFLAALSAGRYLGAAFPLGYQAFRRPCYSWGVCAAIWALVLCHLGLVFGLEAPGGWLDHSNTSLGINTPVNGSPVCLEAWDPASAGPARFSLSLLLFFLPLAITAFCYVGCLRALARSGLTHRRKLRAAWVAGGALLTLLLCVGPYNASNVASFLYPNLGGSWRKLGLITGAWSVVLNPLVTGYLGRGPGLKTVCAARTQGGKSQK
# Procedure: For human TGR5 luciferase (luc) assay, 293T cells were co-transfected with pCRE-luc, pTGR5 (kind gift from Prof. Johan Auwerx, Ecole Polytechnique Fédérale de Lausanne, Lausanne, Switzerland) and pRenilla (Promega, USA). WB403 was added 5 h later. Cells were harvested after 16 h and subjected to luciferase analysis on Lumistar Optima chemiluminescent detector (BMG labtech, Germany). For cAMP testing, 293T cells transiently transfected with pTGR5 or pGPR119 (GeneCopoeia, USA) were washed by FBS-free DMEM, and stimulated with WB403 in FBS-free DMEM containing 3-isobutyl-1-methyl-xanthine (IBMX, Sigma). Cell lysates were collected 30 min later and used for cAMP ELISA assay. FLIPR Calcium 5 assay kit (Molecular Devices, USA) was used for calcium mobilization assay. 293-GPR40 stable cells (kindly provided by Prof. Naiming Zhou of Zhejiang University, Hanzhou, China) or 293 cells transient transfected with GPR120 were seeded at 50,000 cells per well in black-walled clear-bottomed 96-well plates (Costar). An equal volume of loading buffer containing Fluo 4-AM was added the following day and cells were incubated for 1 h before stimulated with compounds. Increase of the intracellular Ca^2+ concentration was monitored by Flexstation 3 system (Molecular Devices, USA).
# Fig 6 Effect of WB403 on GPCRs related to GLP-1 secretion. (A) GPCR expression in human NCI-H716 and mouse MIN6 cells. […]
compound,measurement,setting,value
"CCc1cc(-c2nc(C)c(COCc3ccc(Br)cc3)s2)ccn1 [WB403, 4-(5-((4-bromobenzyloxy)-methyl)-4-methylthiazol-2-yl)-2-ethylpyridine]",GLP-1 stimulation in NCI-H716 cells,NCI-H716 cells,much higher GLP-1 stimulation capacity; also recorded: outstanding effect in GLP-1 stimulation
same,GLP-1 stimulation in MIN6 cells,MIN6 cells,GLP-1 stimulation effect of WB403 was confirmed
same,islet area,HFD/STZ mice,restored islet area but did not expand it beyond that of normal mice
same,hGPR40-Ca2+ activation (calcium mobilization),hGPR40,neither did it exhibit significant effect; also recorded: no significant effect
